Test results reported in PubChem BioAssay (NCI).
Values joined by “and” are separate entries in the source; they are usually repeats but may differ in a detail not shown here. Equal entries are not always repeated.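 Tested at 5 concentrations; 48 h exposure; 96-well plates; endpoints linearly interpolated, else capped at highest concentration. GI50 marks 50% less growth. TGI denotes the concentration required for complete inhibition of growth.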

Assays:
Assay in all cases: inhibition of tumour cell growth, NCI panel, 48 h
NCI-H23 lung = system: NCI-H23 lung
NCI-H460 lung = system: NCI-H460 lung
COLO 205 colon = system: COLO 205 colon
KM12 colon = system: KM12 colon
IGROV1 ovarian = system: IGROV1 ovarian
UACC-257 melanoma = system: UACC-257 melanoma
T-47D breast = system: T-47D breast
M14 melanoma = system: M14 melanoma
EKVX NSCLC = system: EKVX NSCLC
RXF 393 renal = system: RXF 393 renal

SMILES	GI50 (NCI-H23 lung)	TGI (NCI-H23 lung)	GI50 (NCI-H460 lung)	TGI (NCI-H460 lung)	GI50 (COLO 205 colon)	TGI (COLO 205 colon)	GI50 (KM12 colon)	TGI (KM12 colon)	GI50 (IGROV1 ovarian)	TGI (IGROV1 ovarian)	GI50 (UACC-257 melanoma)	TGI (UACC-257 melanoma)	GI50 (T-47D breast)	TGI (T-47D breast)	GI50 (M14 melanoma)	TGI (M14 melanoma)	TGI (EKVX NSCLC)	GI50 (RXF 393 renal)	TGI (RXF 393 renal)
Cc1ccc(OCC2OC(n3cnc4c(Cl)ncnc43)CC2Oc2ccc(C)cc2)cc1 (centres undefined)	3.03 µM and 11.9 µM	7.99 µM and 27.8 µM	3.71 µM and 13.4 µM	18.3 µM and > 48.5 µM	6.45 µM and 20.8 µM	19.4 µM and 74.4 µM	2.42 µM and 14.3 µM	6.57 µM and 42 µM	2.43 µM and 5.87 µM	5.88 µM and 14 µM	6.24 µM and 16 µM	18.5 µM and 37.1 µM	8.39 µM and 29.2 µM	49.5 µM and > 100 µM	2.75 µM and 7.3 µM	6.61 µM and 22.6 µM	7.18 µM and 10.2 µM	2.85 µM and 10.9 µM	10.6 µM and 37.2 µM
Cc1ccc(SC[C@@]2(C(F)F)NC(=O)NC2=O)cc1		> 100 µM		> 100 µM		> 100 µM		> 100 µM		> 100 µM		> 100 µM		> 100 µM		> 100 µM	> 100 µM		> 100 µM
CSc1nc(C#N)c(N)n1C		> 100 µM		> 100 µM		> 100 µM		> 100 µM		> 100 µM		> 100 µM		> 100 µM		> 100 µM	> 100 µM		> 100 µM
N=C(N)SCCCN		41.2 µM		15.8 µM		29.5 µM		59.6 µM		15.6 µM		26 µM		> 100 µM		14.2 µM	> 91.4 µM		26 µM
O=c1[nH]cnc2sc(=S)c3c(c12)CCC3		62.8 µM		> 100 µM		62.7 µM		> 100 µM		> 100 µM		94 µM		> 100 µM		> 100 µM	> 100 µM		63.4 µM
CN(C)Cc1cc(C(=O)/C=C/c2cccc(Cl)c2)cc(CN(C)C)c1O		37.9 µM		11.4 µM		3.79 µM		19.7 µM		14.9 µM		19.9 µM		19.9 µM		15.5 µM	25.4 µM		23.6 µM
O=C(O)c1cc(Cl)cc2c1NC1(N2)C(=O)Nc2ccccc21 (centres undefined)		> 100 µM		> 100 µM		> 100 µM		> 100 µM		> 100 µM		> 100 µM		> 100 µM		> 100 µM	> 100 µM		> 100 µM
CCn1c2ccc(O)c(C(=O)OC)c2c2cc3ccccc3c(O)c21		52.4 µM		54.9 µM		29.5 µM		33.6 µM		31.2 µM		> 100 µM		34.1 µM		47.5 µM	67.4 µM		> 100 µM
O=c1[nH]c2cc3cccnc3c(Cl)c2nc1CBr		32.2 µM		39.7 µM		26.8 µM		33.3 µM		12.3 µM		54.9 µM		28.3 µM		27.8 µM	52.1 µM		34.6 µM
Oc1nc(N/N=C/c2ccccc2)[nH]c1/C=C1\C=Nc2ccccc21		> 100 µM		> 100 µM		> 100 µM		> 100 µM		> 100 µM		> 100 µM		> 100 µM		> 100 µM	> 100 µM		> 100 µM
Cc1cc(C)c2c(=N)c3ccccc3n(CCCCCCO)c2n1		6.69 µM		3.62 µM		2.84 µM		13.5 µM		10.9 µM		15.8 µM		12.1 µM		16.6 µM	6.33 µM		14.2 µM
CCOP(=O)(OCC)C1(O)CC(n2cc(C)c(=O)[nH]c2=O)OC1CO (centres undefined)		> 100 µM		> 100 µM		> 100 µM		> 100 µM		> 100 µM		> 100 µM		> 100 µM		> 100 µM	> 100 µM		> 100 µM
C=C(Br)CNCC(=C)Br		> 100 µM		> 100 µM		> 100 µM		> 100 µM		> 100 µM		98.6 µM		> 100 µM		> 100 µM	> 100 µM		> 100 µM
COc1cc(C(c2cccc3ccccc23)N2C(=O)CCC2C(=O)NCc2ccccc2)cc(OC)c1OC (centres undefined)		> 100 µM		> 100 µM		> 100 µM		> 100 µM		> 100 µM		> 100 µM		> 100 µM		> 100 µM	> 100 µM		> 100 µM
CC(C)(C)c1cc(C(=O)/C=C/c2ccn[nH]2)cc(C(C)(C)C)c1O		7.38 µM		8.6 µM		4.98 µM		5.35 µM		3.97 µM		11.2 µM		3.32 µM		3.51 µM	28.4 µM		3.19 µM
